Experimental data reported in patent publication US10919896B2, “Preparation and uses of pyrimidinone derivatives” (Cancer Research Technology Limited, priority 2016, dated 2021).

Tested on: Cdc7 (pS53MCM2 levels in HCT116 cells)
Assay: Cdc7 Cell Pharmacodynamics Assay Method 1: pS53MCM2 levels in HCT116 cells, 6 hours
Format: cell-based
Conditions: Homo sapiens, HCT-116, 6 h, read-out: Biomarker Method 1 (pEC50) (converted)
Procedure, shortened: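 HCT116 cells (wild-type p53), 20,000 per well in McCoys 5A with 10% FCS, treated with compound for 6 h at 37 °C. Lysates captured on total-MCM2 antibody and probed with anti-pMCM2 Ser53 plus HRP secondary; chemiluminescent read-out of pS53MCM2 levels.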

**Q.** With `O=c1[nH]c(-c2ccnc(F)c2)nc(N2CCCC(F)(F)C2)c1Cl` [Compound 90, 5-chloro-4-(3,3-difluoro-1-piperidyl)-2-(2-fluoro-4-pyridyl)-1H-pyrimidin-6-one] as the compound, how does the EC50 read?
**A.** The EC50 was 0.0331 µM.

**Q.** Which EC50 does the source give for `O=c1[nH]c(-c2ccncc2)nc(N2CCN(CC(F)F)CC2)c1Cl` [Compound 147] here?
**A.** Its EC50 is 0.115 µM.

**Q.** For `C[C@@H]1CNCCN1c1nc(-c2ccncc2)[nH]c(=O)c1Cl` [Compound 364], which EC50 is on record?
**A.** The EC50 was 0.0204 µM.

**Q.** Which EC50 does the source give for `O=c1[nH]c(-c2ccnc(F)c2)nc(N2CCN[C@@H](C(F)(F)F)C2)c1Cl` [Compound 314] here?
**A.** The EC50 was 0.0123 µM.

**Q.** How did the EC50 turn out when `C[C@H]1CN(c2nc(-c3ccncc3)[nH]c(=O)c2Cl)CCN1` [Compound 130] was run?
**A.** The EC50 was 0.107 µM.

**Q.** `NC[C@H]1CCCN(c2nc(-c3ccnc(F)c3)[nH]c(=O)c2Cl)C1` [Compound 362] was tested. Which EC50 did it give?
**A.** Its EC50 is 0.302 µM.

**Q.** How did the EC50 turn out when `O=c1[nH]c(-c2ccncc2)nc(N2CCN[C@H](C(F)(F)F)C2)c1Cl` [Compound 139] was run?
**A.** Its EC50 is 0.324 µM.

**Q.** With `CC(C)[C@H]1CN(c2nc(-c3ccnc(F)c3)[nH]c(=O)c2Cl)CCN1` [Compound 170] as the compound, how does the EC50 read?
**A.** The EC50 was 0.0316 µM.

**Q.** For `CC(C)(C)[C@H]1CN(c2nc(-c3ccncc3)[nH]c(=O)c2F)CCN1` [Compound 185], which EC50 is on record?
**A.** The EC50 was 0.0851 µM.

**Q.** Which EC50 does the source give for `C[C@@H]1CNCCN1c1nc(-c2ccnc(F)c2)[nH]c(=O)c1Cl` [Compound 323] here?
**A.** Its EC50 is 0.0224 µM.

**Q.** How did the EC50 turn out when `CC(C)[C@H]1CN(c2nc(-c3ccncc3)[nH]c(=O)c2F)CCN1` [Compound 308] was run?
**A.** The EC50 was 0.178 µM.

**Q.** With `O=c1[nH]c(-c2ccnc(F)c2)nc(N2CCOCC2)c1Cl` [Compound 316] as the compound, how does the EC50 read?
**A.** Its EC50 is 0.0398 µM.

**Q.** How did the EC50 turn out when `N[C@@H]1CCCN(c2nc(-c3ccnc(F)c3)[nH]c(=O)c2Cl)C1` [Compound 319] was run?
**A.** The EC50 was 0.0741 µM.

**Q.** How did the EC50 turn out when `O=c1[nH]c(-c2ccnc(F)c2)nc(N2CCNCC2)c1Cl` [Compound 360] was run?
**A.** Its EC50 is 0.0575 µM.

**Q.** For `NC[C@@H]1CCCN(c2nc(-c3ccnc(F)c3)[nH]c(=O)c2Cl)C1` [Compound 363], which EC50 is on record?
**A.** The EC50 was 0.794 µM.

**Q.** How did the EC50 turn out when `O=c1[nH]c(-c2ccncc2)nc(N2CCN[C@@H](C(F)(F)F)C2)c1Cl` [Compound 180] was run?
**A.** Its EC50 is 0.0269 µM.

**Q.** With `N[C@H]1CCCN(c2nc(-c3ccnc(F)c3)[nH]c(=O)c2Cl)C1` [Compound 317] as the compound, how does the EC50 read?
**A.** Its EC50 is 0.0977 µM.

**Q.** For `O=c1[nH]c(-c2ccncc2)nc(N2CCCOCC2)c1Cl` [Compound 186], which EC50 is on record?
**A.** Its EC50 is 0.347 µM.
